16 compounds from US20060046981A1, “Anti-nonmelanoma carcinoma compounds, compositions, and methods of use thereof” (GILEAD SCIENCES, INC., priority 2003, published 2006) can be followed below.

One assay relates to SiHa cells. As to the kind of experiment: Antiproliferation assay (7 days, Sulforhodamine B) in SiHa cells. It counts as cell-based, human. Conditions: for Selectivity (HEL/SiHa): HEL EC50 divided by SiHa EC50; for Selectivity for SiHa cells compared with HEL cells: Example 80, also versus PHK keratinocytes, fold. On the procedure: Antiproliferation assays measure effect of compounds on proliferation of cultured cells. Cells are cultured for 7 days in the presence of various concentrations of compounds. On the 7th day, cells are stained with dye, and intensity of staining (proportional to cell number) is measured by spectrophotometer.
(§1) Cells were detached from culture flasks using trypsin, counted, and plated in 96-well culture plates (250-1000 cells per well, depending on cell type). On the next day (defined as day 0), after cells attached to the bottom of plates, 5-fold serial dilutions of compounds were added in duplicate. No compound and 10 μM colchicine (cell division inhibitor) was added to control wells, which would represent 100% proliferation and 0% proliferation, respectively.
(§2) Seven days after addition of compounds, culture plates were treated with 10% trichloroacetic acid at 4° C. for 1 hr, then washed with water. This procedure allows cell-derived proteins to bind to the bottom surface of plates. Proteins were stained with 0.4% Sulforhodamine B in 1% acetic acid for 10 minutes, followed by extensive washing with 1% acetic acid. Remaining dye bound to the bottom of plates was dissolved in 10 mM Trizma base. This generated purple color that was quantified by measuring the absorbance at 510 nm wavelength, using spectrophotometer.
(§3) Cells were detached from culture flasks using trypsin, counted, and plated in 96-well culture plates ([…], depending on cell type). On the next day (defined as day 0), 5-fold serial dilutions of compounds were added in duplicate. Seven days after addition of compounds, culture plates were treated with 10% trichloroacetic acid at 4° C. for 1 hr and washed with water. This procedure allows cellular proteins to bind to the bottom surface of plates. Proteins were stained with 0.4% Sulforhodamine B in 1% acetic acid for 10 minutes, followed by extensive washing with 1% acetic acid. Remaining dye bound to the bottom of plates was solubilized in 10 mM Trizma base, generating purple color. Intensity of the color (proportional to cell number) was quantified by measuring the absorbance at 510 nm wavelength, using spectrophotometer. […] GraphPad Prism version 4.00 for Windows (GraphPad Software, San Diego Calif. USA) was used for the curve fitting and EC50 calculation.

For a further assay, the system named is HEL cells. As to the kind of experiment: Antiproliferation assay (7 days, Sulforhodamine B) in HEL fibroblasts. It counts as cell-based, human. Conditions: read-out: Antiproliferation EC50 HEL lung fibroblast. On the procedure:
as §1, §2, §3

The next assay concerns PHK skin keratinocytes. As to the kind of experiment: cells. Conditions: Homo sapiens, Keratinocyte; Table 79-3; read-out: Antiproliferation EC50 PHK skin keratinocytes. It counts as cell-based.
Assay [1] concerns CK cervical keratinocytes. As to the kind of experiment: cells. It counts as cell-based. Conditions: Homo sapiens, Keratinocyte; Table 79-3; read-out: Antiproliferation EC50 CK cervical keratinocytes.
For another assay, the system named is CaSki cells. As to the kind of experiment: Antiproliferation assay in CaSki cells. As to conditions: Homo sapiens, Ca-Ski; Table 79-4; read-out: Antiproliferation EC50 in HPV positive carcinoma cells CaSki HPV16. Format: cell-based.
For the next assay, the system named is HeLa cells. As to the kind of experiment: Antiproliferation assay in HeLa cells. It counts as cell-based. Conditions: Homo sapiens, Table 79-4, read-out: Antiproliferation EC50 in HPV positive carcinoma cells HeLa HPV18.
Another assay relates to MS751 cells. As to the kind of experiment: Antiproliferation assay in MS751 cells. It counts as cell-based. As to conditions: Homo sapiens, Table 79-4, read-out: Antiproliferation EC50 in HPV positive carcinoma cells MS-751 HPV18.
In another assay the test system is C-4 I cells. As to the kind of experiment: Antiproliferation assay in C-4 I cells. As to conditions: Homo sapiens, Table 79-4, read-out: Antiproliferation EC50 in HPV positive carcinoma cells C-41 HPV18. It counts as cell-based.
Another assay relates to ME-180 cells. As to the kind of experiment: Antiproliferation assay in ME-180 cells. Format: cell-based. As to conditions: Homo sapiens, Table 79-4, read-out: Antiproliferation EC50 in HPV positive carcinoma cells ME-180 HPV39.
The test system of another assay is HT-3 cells. As to the kind of experiment: Antiproliferation assay in HT-3 cells. It counts as cell-based. Conditions: Homo sapiens, Table 79-4, read-out: Antiproliferation EC50 in HPV negative carcinoma cells HT-3 cervix.
In the next assay the test system is SCC-4 cells. As to the kind of experiment: Antiproliferation assay in SCC-4 cells. It counts as cell-based. Conditions: Homo sapiens, Table 79-4, read-out: Antiproliferation EC50 in HPV negative carcinoma cells SCC-4 tongue.
For the next assay, the system named is SCC-9 cells. As to the kind of experiment: Antiproliferation assay in SCC-9 cells. It counts as cell-based. As to conditions: Homo sapiens, Table 79-4, read-out: Antiproliferation EC50 in HPV negative carcinoma cells SCC-9 tongue.
Another assay concerns HPV-16 SiHa cells. It counts as cell-based, human. As to conditions: day 7, 0.2 μg/mL, Annexin V-Propidium iodide double staining.
Setting [2] is: Homo sapiens, SiHa, 168 h, Table 79-2, 7 days, read-out: Antiproliferation EC50 SiHa cervical carcinoma (HPV16).
Setting [3] is: Homo sapiens, HEL, 168 h, Table 79-2, 7 days.
The mark [4] stands for this setting: Homo sapiens, SiHa, Table 79-3, read-out: Antiproliferation EC50 SiHa cervical carcinoma (HPV16).
The mark [5] stands for this setting: Table 79-2, 7 days, read-out: Antiproliferation EC50 SiHa cervical carcinoma (HPV16).

Like-named read-outs stand apart in the source and are kept apart here. Some results are limits rather than exact numbers.

`CC[C@]1(O)C[C@@H]2CN(CCc3c([nH]c4ccccc34)[C@@](C(=O)OC)(c3cc4c(cc3OC)N(C)[C@H]3[C@@](O)(C(=O)OC)[C@H](OC(C)=O)[C@]5(CC)C=CCN6CC[C@]43[C@@H]65)C2)C1` [Vinblastine]: the “Selectivity (HEL/SiHa)” value in the assay with SiHa cells (Table 79-2) stood at 0.39. The EC50 turned out to be 0.00068 µM with SiHa cells (setting [2]) and 0.00027 µM in the assay on HEL cells (setting [3]).

As for `COc1cc([C@@H]2c3cc4c(cc3[C@H](O)[C@H]3COC(=O)[C@H]23)OCO4)cc(OC)c1OC` [Podofilox], in the assay with SiHa cells, the “Selectivity for SiHa cells compared with HEL cells” value (from here on “Selectivity for SiHa cells”) is listed as “showed no selectivity”.

Regarding `Nc1ccn([C@@H]2O[C@H](CO)[C@@H](O)C2(F)F)c(=O)n1` [gemcitabine], the “Selectivity for SiHa cells” value with SiHa cells is “did not show such selectivity”.

Turning to `Nc1ccn([C@@H]2O[C@H](CO)[C@@H](O)[C@@H]2O)c(=O)n1` [AraC, cytarabine], in the assay with SiHa cells, the “Selectivity for SiHa cells” value was “did not show such selectivity”. Moreover, the “Selectivity (HEL/SiHa)” value with SiHa cells (Table 79-2) is reported as 0.113. The EC50 with SiHa cells (setting [2]) was 0.257 µM; with SiHa cells (setting [4]), 0.257 µM; with SiHa cells (Homo sapiens, SiHa, Table 79-4, read-out: Antiproliferation EC50 in HPV positive carcinoma cells SiHa HPV16), 0.257 µM; in the assay on SiHa cells (Homo sapiens, six HPV positive cell lines: SiHa, CaSki, HeLa, MS751, C-4I, ME-180, read-out: Antiproliferation EC50 values, range over all cell lines), 0.094 to 0.257 µM; in the assay on HEL cells (setting [3]) it was 0.029 µM; in the assay with PHK skin keratinocytes, 0.147 µM. Also, the EC50 is 0.107 µM in assay [1]; 0.094 µM in the assay with CaSki cells; 0.174 µM with HeLa cells; 0.144 µM in the assay on MS751 cells; 0.123 µM in the assay on C-4 I cells; 0.101 µM in the assay on ME-180 cells. Further, the EC50 in the assay with HT-3 cells was found to be 0.214 µM; with SCC-4 cells, 0.074 µM; with SCC-9 cells, 0.068 µM. Also, the “Selectivity (CK/SiHa)” value with SiHa cells (Table 79-3) is on record as 0.4. For the same compound, the “Selectivity (PHK/SiHa)” value with SiHa cells (Table 79-3) was 0.57.

As to `O=C1c2c(O)ccc(O)c2C(=O)c2c(NCCNCCO)ccc(NCCNCCO)c21` [Mitoxantrone], the “Selectivity (HEL/SiHa)” value in the assay with SiHa cells (Table 79-2) is on record as <0.37. Besides, the EC50 with SiHa cells (setting [2]) was 0.00867 µM; with HEL cells (setting [3]), < 0.0032 µM.

As for `Nc1ccn(C[C@@H](CO)OCP(=O)(O)O)c(=O)n1` [Cidofovir], the “Selectivity (HEL/SiHa)” value with SiHa cells (Table 79-2) worked out at 0.3. Moreover, the EC50 was 84 µM in the assay with SiHa cells (setting [2]) and 28 µM in the assay on HEL cells (setting [3]).

Take `C[C@H]1O[C@@H](n2cc(F)c(=O)[nH]c2=O)[C@H](O)[C@@H]1O` [Doxifluridine]: in the assay on SiHa cells (Table 79-2), the “Selectivity (HEL/SiHa)” value amounted to 0.449. The values for the EC50 in the assay with SiHa cells (setting [2]) and in the assay on HEL cells (setting [3]) were 8.76 µM and 3.93 µM, respectively.

On to `COc1cc([C@@H]2c3cc4c(cc3[C@@H](O[C@@H]3O[C@@H]5CO[C@@H](C)O[C@H]5[C@H](O)[C@H]3O)[C@H]3COC(=O)[C@H]23)OCO4)cc(OC)c1O` [Etoposide], for which, in the assay with SiHa cells (Table 79-2), the “Selectivity (HEL/SiHa)” value worked out at 0.31. The EC50 in the assay with SiHa cells (setting [2]) amounted to 0.469 µM; with HEL cells (setting [3]), 0.144 µM.

Turning to `COc1cc2c(c(N)c1OC)C(=O)/C(=C\c1cc(C)c(O)c(C)c1)C2` [Indanosine, Indanocine], the EC50 with SiHa cells (Homo sapiens, SiHa, 168 h, read-out: Antiproliferation EC50 SiHa cervical carcinoma (HPV16)) stood at 0.588 µM; with HEL cells (Homo sapiens, HEL, 168 h), 0.159 µM.

For Bleomycin, in the assay with SiHa cells (Table 79-2), the “Selectivity (HEL/SiHa)” value was 0.01. For the same compound, the EC50 turned out to be 3.14 µM in the assay with SiHa cells (setting [5]) and 0.0203 µM in the assay on HEL cells (Table 79-2, 7 days).

With `C[C@@]1(CO)[C@H](O)CC[C@@]2(C)[C@H]1CC[C@H]1C[C@@H]3C[C@@]12CC[C@]3(O)CO` [Aphidicolin (+), Aphidicolin], in the assay with SiHa cells (Table 79-2), the “Selectivity (HEL/SiHa)” value amounted to 0.40. Further, the EC50 in the assay with SiHa cells (setting [5]) was determined as 0.856 µM; in the assay with HEL cells (Table 79-2, 7 days), 0.324 µM.

Turning to `COc1cccc2c1C(=O)c1c(O)c3c(c(O)c1C2=O)C[C@@](O)(C(=O)CO)C[C@@H]3O[C@H]1C[C@H](N)[C@H](O)[C@H](C)O1` [Doxorubicin], in the assay with SiHa cells (Table 79-2), the “Selectivity (HEL/SiHa)” value was found to be 0.43. The values for the EC50 with SiHa cells (setting [2]) and with HEL cells (setting [3]) were 0.00976 µM and 0.0042 µM, respectively.

With `CN(C)/N=N/c1[nH]cnc1C(N)=O` [Dacarba-zine, Dacarbazine], the “Selectivity (HEL/SiHa)” value in the assay on SiHa cells (Table 79-2) stood at 3.98. The EC50 came to 7.4 µM in the assay on SiHa cells (setting [2]) and 29.5 µM with HEL cells (setting [3]).

`Nc1nc2c(ncn2CCOCP(=O)(O)O)c(=O)[nH]1` [PMEG, 9-(2-phosphonylmethoxyethyl)guanine]: the “Selectivity for SiHa cells” value in the assay on SiHa cells was “did not show such selectivity”. Moreover, in the assay with SiHa cells (Table 79-2), the “Selectivity (HEL/SiHa)” value is 4.1. In addition, the EC50 in the assay on SiHa cells (setting [2]) worked out at 0.207 µM; with SiHa cells (setting [4]), 0.207 µM; in the assay on HEL cells (setting [3]) it was 0.861 µM; in the assay on PHK skin keratinocytes, 0.101 µM; in assay [1], 0.501 µM. Besides, the “Selectivity (CK/SiHa)” value with SiHa cells (Table 79-3) amounted to 2.4. Also, the “Selectivity (PHK/SiHa)” value with SiHa cells (Table 79-3) was found to be 0.48. The “% of apoptotic cells in the culture” value in the assay with HPV-16 SiHa cells is listed as 1.2%.

Consider `CC[C@]1(O)C[C@H]2CN(CCc3c([nH]c4ccccc34)[C@@](C(=O)OC)(c3cc4c(cc3OC)N(C=O)[C@H]3[C@@](O)(C(=O)OC)[C@H](OC(C)=O)[C@]5(CC)C=CCN6CC[C@]43[C@@H]65)C2)C1` [Vincristine], for which, in the assay on SiHa cells (Table 79-2), the “Selectivity (HEL/SiHa)” value worked out at 1.55. Moreover, the EC50 in the assay with SiHa cells (setting [2]) turned out to be 0.00124 µM; in the assay with HEL cells (setting [3]), 0.00192 µM.

Regarding `Cc1c2ccncc2c(C)c2c1[nH]c1ccccc12` [Ellipticine], the “Selectivity (HEL/SiHa)” value with SiHa cells (Table 79-2) came out at 1.02. The EC50 was found to be 0.478 µM in the assay with SiHa cells (setting [2]) and 0.486 µM with HEL cells (setting [3]).
